Results as given in patent US12168676B2, “Microbially derived peptides and proteins for immunotherapy” (Genevive, Inc., priority 2019, dated 2024).
“Also recorded” adds a separate entry of the source.

Assays:
[1] = tested on: Splenocytes isolated from naive male C57BL/6 mice; assay: Stimulation of murine naïve splenocytes (Example 1); type: cell-based, mouse; details: 10 μM peptide
Text: This example describes an initial screening assay to identify Bifidobacterium-derived peptides which can activate effector T cells, specifically, CD4 effector T cells which are characterized in part by a CD4^+ CD25^+ FoxP3^− phenotype and CD8 effector cells which are characterized in part by a CD8^+ CD25^+ FoxP3^− phenotype. Splenocytes isolated from naive male C57BL/6 mice (Taconic, 8-14 weeks of age) were resuspended in complete RPMI (RPMI containing 10% FBS plus 1% penicillin/streptomycin) to a final number of 8×10^5 cells/well in a flat-bottom 96-well plate. Cells were then stimulated with 0.05 μg/ml anti-CD3 antibody in the presence of: each peptide (10 μM in water) or ovalbumin peptide amino acids 323-339 (10 μM in water), water (Th0 min H2O), anti-CD3 antibody alone (Th0 min), or with 1 μg/ml anti-CD3, plus IL-12 (10 ng/ml), plus 5 μg/ml anti-IL-4 antibody (positive control to generate Th1 cells). Cells were incubated at 37° C., 5% CO2 for 48 h. See. FIG. 2A, FIG. 2B, and FIG. 2C.
Levels of activated (Tact) CD4 (FIG. 2A) and CD8 (FIG. 2B) T cells, defined by absence of FoxP3 and high CD25 expression, were determined by multicolor flow cytometry. Levels of T cells were then normalized to levels of the T cells when the splenocytes were treated with the OV323-339 negative control peptide. See Levels of IL-2 (FIG. 2C) and IL-17 (FIG. 2D) in culture supernatants were quantified by Luminex analysis. Levels of Granzyme B expression on gated CD8 FoxP3^− T cells were analyzed by flow cytometry. Bars represent mean±SD. (vs. Th0+H2O) by Kruskall-Wallis with uncorrected Dunn's test.
A dose response study was also performed using the above methods wherein naïve mouse splenocytes were treated with increasing doses of SG-3-0020 (1 μM, 5 μM, or 10 μM). Flow cytometry analysis was done to measure frequency of effector CD8 T cells (CD8^+, CD25^+, FoxP3), granzyme B expression on the effector CD8 T cells, and IL-2 expression.

human T cells [2] = assay: Human T cell activation assay, anti-CD3 stimulated purified T cells (Example 2); type: cell-based
Protocol: PBMCs were obtained from 5 individual human donors. […] Furthermore, incubation of the T cells with SG-3-0020 increased secretion of IL-2 and IFN-γ (FIG. 6B). […] Such activation may enhance immune action against a tumor in vivo with or without a co-therapy.

[3] = tested on: CT26 tumor-bearing Balb/c mice; assay: Tumor infiltrating lymphocyte composition/activation in CT26 tumor-bearing Balb/c mice (Examples 3 and 9); type: in vivo, mouse
Protocol: In vivo studies were performed to study the effects of SG-3-0020 administration on, e.g., immune cell activation and tumor size and to test different routes of administration of SG-3-0020 in CT26 tumor-bearing Balb/c mice and its effects on immune modulation. This mouse model is one of the most widely used mouse models for preclinical testing of new immunotherapeutic drugs (Grosso and Jure-Kunkel, 2013, Cancer Immun, 13:5).
Mice were dosed i.v., i.p., p.t. with SG-3-0020 or PBS. For comparison mice were dosed with CD80-Fc or IgG1-Fc i.v. On Day 7, tumor samples were analyzed for tumor infiltrating lymphocyte (TIL) composition/activation by flow cytometry. The protocol used in this experiment is illustrated in FIG. 7A.
BALB/c male mice (n=5-6/group, 8 weeks of age) were inoculated s.c. with CT26 colon carcinoma cells. SG-B was administered in PBS peritumorally daily at 2.5 mg/kg. Control mice were injected with the corresponding volume of PBS. At Day 13 (AH1 staining)) or Day 7 (Ki67, CD25, OX40 staining) excised tumors were washed with PBS, dissected into smaller fragments using scalpels, and further dissociated into single cell suspensions using the Miltenyi Tumor Dissociation Kit and the GentleMACS Octo dissociator. The digested tumors were filtered through pre-separation filters, washed with PBS, and then used for flow cytometry-based analysis. T lymphocytes were gated as CD4^+ or CD8^+ and then analyzed for surface marker expression by FlowJo 10.5.3. p values calculated by Mann-Whitney test.

CT26 mouse model = assay: CT26 mouse model, tumor volume, monotherapy; type: in vivo; details: preliminary results, data not shown
[4] = tested on: T cells isolated from mouse spleens; assay: Mouse T cell activation, anti-CD3 coated plates (Example 4); type: cell-based; details: 10 mcM peptide, anti-CD3 0.1 mcg/mL, 48 hours
Protocol: 96-well culture plates were pre-coated with anti-CD3 (0.1 mcg/mL) in 200 mcL. The plates were incubated overnight at 4° C. The plates were washed with PBS three times before plating the cells (Balb/c splenocytes for T-cell isolation by EasySep™ #19851). The cells were plated at 100-200K/well in final volume of 200 mcL of AIM-V. Peptides (10mcM) or 2 mcg/mL anti-CD28 were added to the cells. The cells were incubated for 48 hours at 37° C.
The incubated cells were used for flow cytometry analysis. SG-3-0020 increased expression of T cell activation markers and proliferation of CD4 and CD8 T cells isolated from mouse spleens (FIG. 11A).
The supernatants were used for MSD analysis. SG-3-0020 increased secretion of effector cytokines by T cells isolated from mouse spleens. (FIG. 11B)

human T cells [5] = assay: Activation markers and cytokine secretion with or without anti-CD3, or with CD3/CD28 activator, T cells (Example 5); type: cell-based
Protocol: (§1) Activation marker expression on T cells and PBMCs in the presence of peptides (10mcM) or anti-CD28 (10 mcg/mL) was determined after 48 hours of incubation, with or without 0.1 mcg/mL anti-CD3. The data were analyzed by flow cytometry (FIG. 13A-D).
Cytokine secretion on T cells in the presence of peptides (10mcM) or anti-CD28 (10 mcg/mL) after 48 h of incubation, with or without 0.1 mcg/mL anti-CD3, was determined. The data were analyzed by MSD (FIG. 14).
Human T cells were activated with ImmunoCult™ Human CD3/CD28 T Cell Activator in the presence of peptides (10mcM) and cytokine secretion was analyzed after 48 hours of incubation by MSD. […] Activation with anti-CD3 on both isolated T cells and PBMCs was required for SG-3-0020-mediated effects.

PBMCs = assay: Activation marker expression with or without anti-CD3, PBMCs (Example 5); type: cell-based, human; details: 10 mcM, with or without 0.1 mcg/mL anti-CD3, 48 hours
Protocol: as §1

activated human T cell = assay: NanoString nCounter Human PanCancer Immune profiling of activated T cells (Example 6); type: cell-based; details: RNA, T cells of 5 donors, 10 μM vs vehicle
Protocol: T cells were isolated from 5 individual blood donors and activated as described previously. RNA expression levels were determined by the NanoString nCounter Human PanCancer Immune profiling.

human T cells [6] = assay: Phage binding to T cells, titers of eluted phages (Example 7)
Protocol: The binding of SG-3-0020 phages to target cells (naïve T-cell, activated T-cell) was tested.
Biotinylated peptide stock (1 mM) was diluted to 1 uM (×1,000-fold) with 1×PBS+2% BSA. 150 mcL of phages (multivalent display) were mixed with 70 mcL of 1×PBS+2% BSA. The solution was rotated at room temperature for 1 hour.
The cells, either naïve T-cells (about 13×10^6 cells) or activated T-cells (about 16×10^6 cells) were thawed. The cells were then centrifuged at 1,500 for 5 min at 4° C., and the supernatant was aspirated. The cell pellets were washed with 5 mL of 1×PBS+2% BSA by pipetting. This was repeated such that the pellets were centrifuged and washed a total of 3 times.
The cell pellets were resuspended with 1050 mcL of 1×PBS+2% BSA, and 100 mcL of phage (M13 bacteriophage G8P capsid antibody-FITC from antibodies-online Inc (Cat #: ABIN 125966)) were added into a well of 96-well plates (phage binding). 150 mcL of diluted biotinylated peptide were added into a well of 96-well plates (biotinylated peptide binding). 100 mcL of resuspended cells were added into the wells for phage binding and 50 mcL of resuspended cells were added into the wells for biotinylated peptide binding.
The cells were put on the rocker and incubated at 4° C. for 2 hours for binding and then centrifuged at 1,500 for 5 min at 4° C. The supernatant was discarded. […]

[7] = 0.05 μg/ml anti-CD3, 48 h, flow cytometry
[8] = anti-CD3 stimulated purified T cells
[9] = anti-CD3 stimulated purified T cells, 5 donors
[10] = vs activated T cells without SG-3-0020, data not shown
[11] = peri-tumoral injections twice daily (b.i.d.)

SG-3-0020: Bifidobacterium breve-derived peptide, SEQ ID NO:1 MLSTKKTKTHDHYPCGRMRDPGWHDWRACLTHQGIEEDEWPV, chemically synthesized for the Examples (Bifidobacterium breve)
frequency of activated (Tact) CD4 T cells (CD25+/FoxP3-) [1, 7]: increase; also recorded: enhance | frequency of activated (Tact) CD8 T cells (CD25+/FoxP3-) [1, 7]: increase; also recorded: enhance | IL-2 secretion in culture supernatants ([1]; 48 h, Luminex): facilitate | IL-17 secretion in culture supernatants ([1]; 48 h, Luminex): facilitate | Granzyme B expression in CD8 T cells ([1]; 48 h, flow cytometry): promote induction | IFN-γ secretion (human T cells [2]; [8]): increased | IL-2 secretion (human T cells [2]; [8]): increased | IL-10 secretion (human T cells [2]; [8]): increase | TNF-α secretion (human T cells [2]; [8]): increase | PD-1 expression on CD4+ cells (human T cells [2]; [9]): increased | PD-1 expression on CD8+ cells (human T cells [2]; [9]): increased | cytokine-stimulating activity, donors responding (human T cells [2]; purified T cell system in the presence of anti-CD3 antibody): 5/5 | CD4+CD25+ T cells (human T cells [2]; [10]): increase | CD4+ICOS+ T cells (human T cells [2]; [10]): increase | CD4+OX40+ T cells (human T cells [2]; [10]): increase | CD8+ICOS+ T cells (human T cells [2]; [10]): increase | CD8+OX40+ T cells (human T cells [2]; [10]): increase | CD8CD25+ T cells (human T cells [2]; [10]): increase | CD8+CD25+ cells in tumor infiltrating lymphocytes ([3]; Day 7, flow cytometry): increase | CD8+Ki67+ cells in tumor infiltrating lymphocytes ([3]; Day 7, flow cytometry): increase | CD8+OX40+ cells in tumor infiltrating lymphocytes ([3]; Day 7, flow cytometry): increase | NK cells in tumor infiltrating lymphocytes ([3]; Day 7, flow cytometry): increase | Tetramer staining (AH1 epitope) ([3]; Day 13): positive effect | activated CD8+ T cell frequency within the TIL compartment ([3]; mouse, in vivo): increases | NK cell frequency in the TIL compartment [3, 11]: increase | activated CD8+ T cell frequency in the TIL compartment [3, 11]: increase | tumor volume (CT26 mouse model): decrease | secretion of effector cytokines ([4]; MSD): increased | expression of T cell activation markers ([4]; flow cytometry): increased | proliferation of CD4 and CD8 T cells ([4]; flow cytometry): increased | dependence of SG-3-0020-mediated effects on activation with anti-CD3, isolated T cells (human T cells [5]; 10 mcM, with or without 0.1 mcg/mL anti-CD3, 48 hours): required | cytokine secretion in combination with anti-CD28 activation (human T cells [5]; ImmunoCult Human CD3/CD28 T Cell Activator, 10 mcM peptide, 48 hours, MSD): increases activity | dependence of SG-3-0020-mediated effects on activation with anti-CD3, PBMCs (PBMCs): required | CD96 expression (activated human T cell): decrease | CTSL expression (activated human T cell): increase | CXCL10 expression (activated human T cell): decrease | CXCR6 expression (activated human T cell): decrease | DUSP6 expression (activated human T cell): increase | GZMK expression (activated human T cell): decrease | IL-2 expression (activated human T cell): increase | IL-3 expression (activated human T cell): increase | IL-9 expression (activated human T cell): increase | IL-10 expression (activated human T cell): increase | IL-21 expression (activated human T cell): increase | IL-24 expression (activated human T cell): increase | IRF1 expression (activated human T cell): decrease | ISG20 expression (activated human T cell): decrease | LY9 expression (activated human T cell): decrease | SLAMF7 expression (activated human T cell): decrease | SMAD3 expression (activated human T cell): decrease | STAT1 expression (activated human T cell): decrease | TCF7 expression (activated human T cell): decrease | binding to human T cells (human T cells [6]; FIG. 17, phage titer): binds | phage titer, binding to the activated T-cells compared to empty phages (human T cells [6]; multivalent display phage, 4° C., 2 hours): more bound
